This note sets out measurements from patent US20100197663A1, “METHOD AND COMPOSITIONS FOR TREATMENT OF PAINFUL DISORDERS” (RODLEN LABORATORIES, INC., priority 2004, published 2010).

For experiment [1], the system named is widespread pain in the neck, back and arms associated with fibromyalgia. The experiment in a line: Case report: patient with fibromyalgia pain, oral treatment at H.S. In kind it is in vivo, human. The settings on record: person; analgesic taken by itself, before combination treatment.
In experiment [2] the test system is widespread pain in the neck, shoulders, arms and legs. Briefly: Case report: patient with widespread pain, headaches, non-restorative sleep and fatigue, oral treatment at H.S. In kind it is in vivo, human. The settings on record: person; before combination treatment.

For the compound `CC(=O)Nc1ccc(O)cc1` [acetaminophen], the “response of pain to analgesic by itself” value in experiment [1] is “unresponsive”.
On the same count and under the same terms, with `CC(=O)Oc1ccccc1C(=O)O` [aspirin] the entry was “unresponsive”.
In the case of `CC(C)Cc1ccc(C(C)C(=O)O)cc1` (stereo not drawn) [ibuprofen], the “response of pain to analgesic alone” value in experiment [2] was “unresponsive”.
